Data taken from US20250375526A1, “IRAK DEGRADERS AND USES THEREOF” (Kymera Therapeutics, Inc., priority 2020, published 2025).
pIC50: −log10 of the molar value.

Key:
[1] = biological target: T1, IRAK4 (Homo sapiens, UniProt Q9NWZ3); test: OCI-LY10 IRAK MSD assay DC50 (IRAK4 degradation); assay type: cell-based; settings: OCI-Ly10 cells, incubated for 4 hr, concentration of compound required to degrade 50% of protein
T1 construct: endogenous in cells; host or cells: OCI-Ly10
T1 sequence (Q9NWZ3 1-460): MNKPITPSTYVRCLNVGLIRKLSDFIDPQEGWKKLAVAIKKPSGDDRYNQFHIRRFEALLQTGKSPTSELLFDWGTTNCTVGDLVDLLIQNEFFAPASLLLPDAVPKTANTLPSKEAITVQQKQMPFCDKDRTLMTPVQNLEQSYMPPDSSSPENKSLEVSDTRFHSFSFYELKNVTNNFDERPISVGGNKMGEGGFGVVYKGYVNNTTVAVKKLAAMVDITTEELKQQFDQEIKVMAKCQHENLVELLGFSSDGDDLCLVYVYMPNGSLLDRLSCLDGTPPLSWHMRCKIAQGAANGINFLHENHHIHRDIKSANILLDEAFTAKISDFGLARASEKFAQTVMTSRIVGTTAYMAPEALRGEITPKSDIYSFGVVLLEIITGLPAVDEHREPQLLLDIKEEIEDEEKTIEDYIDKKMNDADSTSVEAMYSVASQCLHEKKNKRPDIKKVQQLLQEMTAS
Method: A MSD assay is run to determine the concentration of compound required to degrade 50% of protein (DC50).
• Compounds were reconstituted to 10 mM in stock solutions. The stock solutions were diluted to 5 mM and 45 μL of each dilution was transferred to a 384 pp-plate. A 3 fold, 8-point serial dilution was performed by transferring 15 μL of compound into 30 μL DMSO using Janus. • 20 nL of each compound were added into each well of a 96-well plate (Corning3799). • OCI-Ly10 cells were seeded into the 96-well plate at 3.0*10e^5 cells/100 μL/well. • The cell plate was shaken at 720 rpm for 5 min and incubated for 4 hr. • 100 μL of cells were transferred into the 96-PCR plate and spun down at high speed for 5 mins. • The supernatant was discarded and 100 μL of RIPA lysis buffer with proteinase inhibitors was added per well. The plate was then sealed and shaken at 600 rpm and 4° C. for about 20 min. • The plate was then spun down at high speed (about 3200 g) for 30 min and then frozen in a −80° C. fridge. • A bare MSD plate (L15XA-3) was coated with 2 μg/mL of capture antibody (mouse Anti-IRAK4 antibody [2H9], ab119942) in PBS to 40 μL/well and incubated overnight at 4° C.
• The MSD coated plate was washed 3× (150 μL/well) with 1×TBST (CST #9997S). • The MSD plate was then blocked with 150 μL of blocking buffer [3% Blocker A (MSD, R93BA-4) in TBST]/well and shaken for 1 hr at RT and 600 rpm. • The MSD plate was washed 3× (150 μL/well) with 1×TBST. The sample RIPA lysates were then added to the MSD plate (50 μL/well) and shaken for 1 hr at RT and 600 rpm. • The MSD plate was washed 3× (150 μL/well) with 1×TBST and the primary detection antibody (Rabbit Anti-IRAK4 antibody [Y279], ab32511) was added to a final concentration of 1 μg/ml with 25 μL/well. The plate was then shaken for 1 hr at RT and 600 rpm. • The MSD plate was washed 3× (150 μL/well) with 1×TBST and the secondary detection antibody, SULFO-TAG anti-species antibody (Anti Rabbit Antibody (R32AB-5) MSD, R32AB-1) was added to a volume of 25 μL/well at a final concentration of 1 μg/ml. The plate was then shaken for 1 hr at RT and 600 rpm. • The MSD plate was then washed 3× (150 μL/well) with 1×TBST. • 1×MSD reading buffer was then added (150 μL/well) and the plate […].
(MSD, R92TC-2) • The MSD instrument was then read.
The remaining activity was calculated following the formula below:
• The DC50 was calculated by fitting the Curve using Xlfit (v5.3.1.3), equation 201: […]
The letter codes for IRAK4 DC50 indicate the concentration of compound required to degrade 50% of protein: A (<0.01 μM), B (0.01-0.1 μM), C (>0.1-0.2 μM), D (>0.2 μM).

[2] = test system: OCI-LY10 cells; test: CellTiter-Glo Luminescent Cell Viability Assay; assay type: cell-based; settings: Homo sapiens, 96 h, incubated 4 days, read-out: OCI-LY10 CTG IC50
Method: Compound-mediated viability effect on OCI-LY10 was quantitatively determined using the CellTiter-Glo® Luminescent Cell Viability Assay kit from Promega (Catalog number G7570) following manufacturer's recommended procedures. Briefly, OCI-LY10 cells were seeded into 384 well plates (Grenier Bio-One, Catalog number 781080) with a density of 10,000 cells per well. Compounds were then added to the assay plate with final top concentration of 10 μM and 1:3 dilution series with total of 9 doses. The final DMSO concentration was normalized to 0.2%. The assay plates were incubated at 37° C. for 4 days under 5% CO2. Then the assay plate was equilibrated at room temperature for 10 minutes. To determine cell viability, 30 μL CellTiter Glo reagent was added to each well and the assay plate was centrifuged at 1000 rpm for 30 second, incubated at room temperature for 10 min, and analyzed by detecting the luminescence using a multimode plate reader (EnVision 2105, PerkinElmer). The data was then analyzed by software Prism 7.0 from GraphPad and the dose response curves were fit using a three-parameter logistic equation to calculate IC50.
The letter codes for OCI-LY10 CTG IC50 include: A (<1 μM), B (1-10 μM), C (>10 μM).

| DC50 [1] [µM] | pIC50 [2] | SMILES |
| --- | --- | --- |
| < 0.01 | 5.00 to 6.00 | CN(C[C@H]1CC[C@H](n2cc3cc(NC(=O)c4cccc(C(F)(F)F)n4)c(C(C)(C)O)cc3n2)CC1)C1CCN(c2cccn3c(N4CCC(=O)NC4=O)cnc23)CC1 [I-4] |
| < 0.01 | 5.00 to 6.00 | O=C1CCN(c2cnc3c(C#CCOC4CCN(C[C@H]5CC[C@H](n6cc(NC(=O)c7cnn8ccc(N9C[C@H]%10C[C@@H]9CO%10)nc78)c(C(F)F)n6)CC5)CC4)cccn23)C(=O)N1 [I-24] |
| 0.01 to 0.1 | > 6.00 | COc1cc2nn([C@H]3CC[C@H](CN4CCC(c5cccn6c(N7CCC(=O)NC7=O)cnc56)CC4)CC3)cc2cc1NC(=O)c1cccc(C(F)(F)F)n1 [I-26] |
| < 0.01 | 5.00 to 6.00 | O=C1CCN(c2cnc3cc(C#CCOC4CCN(C[C@H]5CC[C@H](n6cc(NC(=O)c7cnn8ccc(N9C[C@H]%10C[C@@H]9CO%10)nc78)c(C(F)F)n6)CC5)CC4)ccn23)C(=O)N1 [I-3] |
| > 0.2 | > 6.00 | O=C1CCN(c2cnc3cc(C4CCN(C[C@H]5CC[C@H](n6cc7cc(NC(=O)c8cccc(C(F)(F)F)n8)ccc7n6)CC5)CC4)ccn23)C(=O)N1 [I-32] |
| < 0.01 | > 6.00 | COc1cc2nn([C@H]3CC[C@H](CN(C)C4CCN(c5ccn6c(N7CCC(=O)NC7=O)cnc6c5)CC4)CC3)cc2cc1NC(=O)c1cccc(C(F)(F)F)n1 [I-31] |
| > 0.2 | 5.00 to 6.00 | O=C1CCN(c2cncc3cc(C#CCOC4CCN(C[C@H]5CC[C@H](n6cc(NC(=O)c7cnn8ccc(N9C[C@H]%10C[C@@H]9CO%10)nc78)c(C(F)F)n6)CC5)CC4)ccc23)C(=O)N1 [I-16] |
| < 0.01 | 5.00 to 6.00 | CC(C)(O)c1cc2nn([C@H]3CC[C@H](CC4CCN(c5ccn6c(N7CCC(=O)NC7=O)cnc6c5)CC4)CC3)cc2cc1NC(=O)c1cccc(C(F)(F)F)n1 [I-2] |
| < 0.01 | 5.00 to 6.00 | O=C1CCN(c2cncc3c(C#CCOC4CCN(C[C@H]5CC[C@H](n6cc(NC(=O)c7cnn8ccc(N9C[C@H]%10C[C@@H]9CO%10)nc78)c(C(F)F)n6)CC5)CC4)cccc23)C(=O)N1 [I-9] |
| < 0.01 | > 6.00 | COc1cc2nn([C@H]3CC[C@H](CN(C)C4CCN(c5cccn6c(N7CCC(=O)NC7=O)cnc56)CC4)CC3)cc2cc1NC(=O)c1cccc(C(F)(F)F)n1 [I-25] |
